Source: paper PMC5904222, “Synthesis and anticancer activity of multisubstituted purines and xanthines with one or two propynylthio and aminobutynylthio groups” (Medicinal Chemistry Research, 2018)
Values after ≈ are worked out from the molar mass of the structure shown.

Legend:
[1] = system: C-32 (human amelanotic melanoma); experiment: WST-1 proliferation assay, C-32; assay type: cell-based; settings: C-32 cells, 72 h exposure; for IC50: Homo sapiens, C32, 72 h, read-out: Antiproliferative activity IC50 C-32
Procedure: (§1) Compounds were evaluated for their anticancer activity using three cultured cell lines: SNB-19 (human glioblastoma, DSMZ - German Collection of Microorganisms and Cell Cultures, Braunschweig, Germany), C-32 (human amelanotic melanoma, ATCC-American Type Culture Collection, Manassas, VA, USA), MDA-MB-231 (human adenocarcinoma mammary gland, ATCC, Manassas, VA, USA), and HFF-1 (human fibroblast cell line, ATCC, Manassas, VA, USA). The cultured cells were kept at 37 °C and 5% CO2. The cells were seeded (1 × 10^4 cells/well/100 μL DMEM supplemented with 10% FCS and streptomycin and penicillin) using 96-well plates (Corning). The cells were counted in a hemocytometer (Burker’s chamber) using a phase contrast Olympus IX50 microscope equipped with Sony SSC-DC58 AP camera and Olympus DP10 digital camera.
(§2) The antiproliferative effect of the compounds obtained from both the cancer and the normal cells was determined using the Cell Proliferation Reagent WST-1 assay (Roche Diagnostics, Mannheim, Germany). This colorimetric assay is based on the viable cell’s ability to cause the bright red-colored stable tetrazolium salt (2-(4-iodophenyl)-3-(4-nitrophenyl)-5-(2,4-disulfophenyl)-2H-tetrazolium, monosodium salt) to cleave to the dark red soluble formazan by cellular enzymes. An expansion in the number of viable cells results in an increase in the overall activity of mitochondrial dehydrogenases in the sample. An increase in the amount of formazan dye formed correlates to the number of metabolically active cells in the culture. The formazan dye produced by metabolically active cells is quantified by a scanning ELISA reader that measures the absorbance of the dye solution at appropriate wavelengths. The examined cells were exposed to the tested compounds for 72 h at various concentrations between 0.1 and 100 μg/mL (prepared initially at a concentration of 1 mg/mL in DMSO). The control was performed in order to check that DMSO has no effect on the cells at the concentration used. The cells were incubated with WST-1 (10 μL) for 1 h and the absorbance of the samples was measured against a background control at 450 nm using a microplate reader with a reference wavelength at 600 nm. The results are expressed as the means of at least two independent experiments performed in triplicate. […] The IC50 values (a concentration of a compound that is required for 50% inhibition) were calculated from the dose–response relationship with respect to control.

[2] = system: HFF-1 (human fibroblast cell line); experiment: WST-1 proliferation assay, normal fibroblasts HFF-1; assay type: cell-based; settings: for IC50: read-out: Antiproliferative activity IC50 HFF-1
Procedure: as §1
as §2, with “The control was performed in order to check that DMSO has no effect on the cells at the concentration used.” left out

[3] = system: MDA-MB-231 (human adenocarcinoma mammary gland); experiment: WST-1 proliferation assay, MDA-MB-231; assay type: cell-based; settings: MDA-MB-231 cells, 72 h exposure; for IC50: Homo sapiens, MDA-MB-231, 72 h, read-out: Antiproliferative activity IC50 MDA-MB-231
Procedure: as §1, §2

[4] = system: SNB-19 (human glioblastoma); experiment: WST-1 proliferation assay, SNB-19; assay type: cell-based; settings: SNB-19 cells, 72 h exposure; for IC50: Homo sapiens, SNB-19, 72 h, read-out: Antiproliferative activity IC50 SNB-19
Procedure: as §1, §2

[5] = normal human fibroblasts HFF-1, 72 h exposure, WST-1

Row | SMILES | Antiproliferative activity IC50 C-32 [1] [µg/mL] | Antiproliferative activity IC50 HFF-1 [2, 5] [µg/mL] | Antiproliferative activity IC50 MDA-MB-231 [3] [µg/mL] | Antiproliferative activity IC50 SNB-19 [4] [µg/mL] | IC50 [1] [µg/mL] | IC50 [2, 5] [µg/mL] | melting point [°C] | IC50 [3] [µg/mL] | IC50 [4] [µg/mL] | cytotoxicity on the normal human fibroblasts (HFF-1), in words [2]
1 | N.N.[Cl][Pt][Cl] [Cisplatin, cisplatin, reference compound] | 5.71 | 1.21 | 11.85 | 1.46 |  |  |  |  |  | 
2 | Cn1cnc2nc(Cl)nc(SCC#CCN3CCCCC3)c21 [Compound 2a, 2-Chloro-6-(4-N-piperidinylbut-2-ynylthio)-7-methylpurine] |  |  |  |  | 21 (≈ 62.6 µM) | 35.4 (≈ 105 µM) | 122 to 124 | 33.4 (≈ 99.4 µM) | 28.8 (≈ 85.7 µM) | 
3 | Cn1cnc2nc(Cl)nc(SCC#CCN3CCOCC3)c21 [Compound 2b, 2-Chloro-6-(4-N-morpholinylbut-2-ynylthio)-7-methylpurine] |  |  |  |  | 125 (≈ 370 µM) | 20.1 (≈ 59.5 µM) | 168 to 169 | 66.3 (≈ 196 µM) | 35.4 (≈ 105 µM) | 
4 | CCN(CC)CC#CCSc1nc(Cl)nc2ncn(C)c12 [Compound 2c, 2-Chloro-6-(4-diethylaminobut-2-ynylthio)-7-methylpurine] |  |  |  |  | 11.9 (≈ 36.7 µM) | 8.65 (≈ 26.7 µM) | 117 to 118 | 48.1 (≈ 148 µM) | 17.4 (≈ 53.7 µM) | 
5 | C#CCSc1nc(SCC#C)c2c(ncn2C)n1 [Compound 4, 2,6-di(prop-2-ynylthio)-7-methylpurine] |  |  |  |  |  | 10 (≈ 36.4 µM) | 162 to 164 |  | 15 (≈ 54.7 µM) | relatively weak cytotoxicity
6 | Cn1cnc2nc(SCC#CCN3CCCC3)nc(SCC#CCN3CCCC3)c21 [Compound 5a, 2,6-Di(4-N-pyrrolidinylbut-2-ynylthio)-7-methylpurine] |  |  |  |  | 6.81 (≈ 15.5 µM) | 10 (≈ 22.7 µM) | 97 to 99 | 19.9 (≈ 45.3 µM) | 19.4 (≈ 44 µM) | 
7 | Cn1cnc2nc(SCC#CCN3CCCCC3)nc(SCC#CCN3CCCCC3)c21 [Compound 5b, 2,6-Di(4-N-piperidinylbut-2-ynylthio)-7-methylpurine] |  |  |  |  | 6.39 (≈ 13.6 µM) | 3.98 (≈ 8.49 µM) | 130 to 132 | 7.35 (≈ 15.7 µM) | 4.64 (≈ 9.9 µM) | 
8 | Cn1cnc2nc(SCC#CCN3CCOCC3)nc(SCC#CCN3CCOCC3)c21 [Compound 5c, 2,6-Di(4-N-morpholinylbut-2-ynylthio)-7-methylpurine] |  |  |  |  | 0.35 (≈ 0.741 µM) | 0.37 (≈ 0.783 µM) | 121 to 123 | 50.8 (≈ 107 µM) | 21.5 (≈ 45.6 µM) | 
9 | CCN(CC)CC#CCSc1nc(SCC#CCN(CC)CC)c2c(ncn2C)n1 [Compound 5d, 2,6-Di(4-diethylaminobut-2-ynylthio)-7-methylpurine] |  |  |  |  | 23.9 (≈ 53.7 µM) | 5.95 (≈ 13.4 µM) | 77 to 79 | 38.5 (≈ 86.6 µM) | 48.9 (≈ 110 µM) | 
10 | C#CCSc1nc2c(c(=O)[nH]c(=O)n2C)n1C [Compound 9, 8-(prop-2-ynylthio)-3,7-dimethylxanthine] | 103.46 |  | 169.34 | 191.10 | > 100 | 154 (≈ 614 µM) | 252 to 253 | > 100 | > 100 | 
11 | Cn1c(SCC#CCN2CCCC2)nc2c1c(=O)[nH]c(=O)n2C [Compound 10a, 8-(4-N-pyrrolidinylbut-2-ynylthio)-3,7-dimethylxanthine] |  |  |  |  | 51.1 (≈ 153 µM) | 34.3 (≈ 103 µM) | 195 to 197 | 472 (≈ 1410 µM) | 177 (≈ 530 µM) | 
12 | Cn1c(SCC#CCN2CCCCC2)nc2c1c(=O)[nH]c(=O)n2C [Compound 10b, 8-(4-N-piperidinylbut-2-ynylthio)-3,7-dimethylxanthine] |  |  |  |  | 355 (≈ 1020 µM) | 30.4 (≈ 87.5 µM) | 223 to 225 | 364 (≈ 1050 µM) | 166 (≈ 478 µM) | 
13 | Cn1c(SCC#CCN2CCOCC2)nc2c1c(=O)[nH]c(=O)n2C [Compound 10c, 8-(4-N-morpholinylbut-2-ynylthio)-3,7-dimethylxanthine] |  |  |  | 1.69 | 223 (≈ 637 µM) | 5.87 (≈ 16.8 µM) | 174 to 176 | 6.54 (≈ 18.7 µM) | < 1.7 | 
14 | CCN(CC)CC#CCSc1nc2c(c(=O)[nH]c(=O)n2C)n1C [Compound 10d, 8-(4-diethylaminobut-2-ynylthio)-3,7-dimethylxanthine] |  |  |  | 1.48 | 26.4 (≈ 78.6 µM) | 3.68 (≈ 11 µM) | 186 to 188 | 68.1 (≈ 203 µM) | < 1.7 | 
15 | C#CCSc1nc(Cl)nc2nc(SCC#C)n(C)c12 [Compound 14, 2-chloro-6,8-di(prop-2-ynylthio)-7-methylpurine] |  |  |  |  | 270 (≈ 875 µM) | 20.1 (≈ 65.1 µM) | 161 to 163 | 10 (≈ 32.4 µM) |  | relatively weak cytotoxicity
16 | Cn1c(SCC#CCN2CCCC2)nc2nc(Cl)nc(SCC#CCN3CCCC3)c21 [Compound 15a, 2-Chloro-6,8-di(4-N-pyrrolidinylbut-2-ynylthio)-7-methylpurine] | 4.55 |  | 3.83 | 0.52 | 3.8 to 4.5 (≈ 8 to 9.47 µM) | 3.63 (≈ 7.64 µM) | 133 to 135 | 3.8 to 4.5 (≈ 8 to 9.47 µM) | < 1 | 
17 | Cn1c(SCC#CCN2CCCCC2)nc2nc(Cl)nc(SCC#CCN3CCCCC3)c21 [Compound 15b, 2-Chloro-6,8-di(4-N-piperidinylbut-2-ynylthio)-7-methylpurine] |  |  |  |  | 19.1 (≈ 37.9 µM) | 5.5 (≈ 10.9 µM) | 108 to 110 | 38.1 (≈ 75.7 µM) | 11.6 (≈ 23.1 µM) | 
18 | Cn1c(SCC#CCN2CCOCC2)nc2nc(Cl)nc(SCC#CCN3CCOCC3)c21 [Compound 15c, 2-Chloro-6,8-di(4-N-morpholinylbut-2-ynylthio)-7-methylpurine] |  |  |  |  |  | 36.4 (≈ 71.7 µM) | 112 to 113 | 74 (≈ 146 µM) | 26.1 (≈ 51.5 µM) | relatively weak cytotoxicity
19 | CCN(CC)CC#CCSc1nc(Cl)nc2nc(SCC#CCN(CC)CC)n(C)c12 [Compound 15d, 2-Chloro-6,8-di(diethylaminobut-2-ynylthio)-7-methylpurine] | 5.33 |  |  | 2.91 | 2.9 to 5.3 (≈ 6.05 to 11.1 µM) | 1 (≈ 2.09 µM) | 88 to 90 | 10 (≈ 20.9 µM) | 2.9 to 5.3 (≈ 6.05 to 11.1 µM) | cytotoxic
